From patent US20090042964A1, “AMINO-5-[SUBSTITUTED-4-(DIFLUOROMETHOXY)PHENYL]-5-PHENYLIMIDAZOLONE COMPOUNDS AS BETA-SECRETASE INHIBITORS” (Wyeth, priority 2007, published 2009)
Like-named read-outs stand apart in the source and are kept apart here.

Target: human BACE1 (Homo sapiens, UniProt P56817)
Assay: Fluorescent kinetic assay, evaluation of BACE1 binding affinity of test compounds
Format: biochemical
Conditions: 10 nM human BACE1, 25 μM substrate WABC-6, pH 4.5, room temperature
Procedure, shortened: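 Kinetic fluorescence assay: enzyme added last to inhibitor and substrate mix, reading started immediately; substrate at 100 μM working dilution (25 μL in 100 μL total). Buffer 66.7 mM Na-acetate pH 4.5 with 0.0667% CHAPS for inhibitor and enzyme dilutions; enzyme stock quantified at 280 nm.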

human BACE1, sequence (P56817 46-501): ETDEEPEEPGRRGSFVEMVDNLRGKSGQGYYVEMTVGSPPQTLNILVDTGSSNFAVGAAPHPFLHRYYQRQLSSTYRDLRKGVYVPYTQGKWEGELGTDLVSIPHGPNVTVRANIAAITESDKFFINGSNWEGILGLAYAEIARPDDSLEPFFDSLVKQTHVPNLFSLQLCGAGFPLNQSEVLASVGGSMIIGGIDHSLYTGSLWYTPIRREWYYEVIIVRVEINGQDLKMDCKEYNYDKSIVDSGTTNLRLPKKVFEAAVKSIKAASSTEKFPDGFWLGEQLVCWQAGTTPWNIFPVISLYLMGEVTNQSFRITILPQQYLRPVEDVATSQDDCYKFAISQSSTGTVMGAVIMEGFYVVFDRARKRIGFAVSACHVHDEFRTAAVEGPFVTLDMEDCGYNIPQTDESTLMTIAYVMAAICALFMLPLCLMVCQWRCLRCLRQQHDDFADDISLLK

Compound	IC50 (read-out: BACE1 IC50)	IC50 (BACE1 IC50 μM)
CCCCOc1cccc(C2(c3ccc(OC(F)F)c(Cl)c3)N=C(N)N(C)C2=O)c1 (stereo not shown) [Example 35, 2-Amino-5-(3-butoxyphenyl)-5-[3-chloro-4-(difluoromethoxy)-phenyl]-3-methyl-3,5-dihydro-4H-imidazol-4-one]	< 0.1 µM	
CCc1cc(C2(c3ccccc3)N=C(N)N(C)C2=O)ccc1OC(F)F (stereo not shown) [Example 6, 2-Amino-5-[4-(difluoromethoxy)-3-ethylphenyl]-3-methyl-5-phenyl-3,5-dihydro-4H-imidazol-4-one]		0.11 to 1 µM
CCCOc1cccc(C2(c3ccc(OC(F)F)c(C)c3)N=C(N)N(C)C2=O)c1 (stereo not shown) [Example 44, 2-Amino-5-[4-(difluoromethoxy)-3-methylphenyl]-3-methyl-5-(3-propoxyphenyl)-3,5-dihydro-4H-imidazol-4-one]	< 0.1 µM	
COCC#Cc1cccc([C@]2(c3ccc(OC(F)F)c(C)c3)N=C(N)N(C)C2=O)c1 [Example 70, (5R)-2-Amino-4-(4-(difluoromethoxy)-3-methylphenyl)-4-(3-(3-methoxyprop-1-ynyl)phenyl)-1-methyl-1H-imidazol-5(4H)-one]	0.11 to 1 µM	
C=Cc1cc([C@@]2(c3ccccc3)N=C(N)N(C)C2=O)ccc1OC(F)F [Example 33, (5R)-2-Amino-5-[4-(difluoromethoxy)-3-vinylphenyl]-3-methyl-5-phenyl-3,5-dihydro-4H-imidazol-4-one]		< 0.1 µM
CCCOc1cc([C@]2(c3ccc(OC(F)F)c(C)c3)N=C(N)N(C)C2=O)ccc1F [Example 115, (5S)-2-Amino-5-[4-(difluoromethoxy)-3-methylphenyl]-5-(4-fluoro-3-propoxyphenyl)-3-methyl-3,5-dihydro-4H-imidazol-4-one]	0.11 to 1 µM	
CN1C(=O)C(c2ccc(F)c(OCCCF)c2)(c2ccc(OC(F)F)c(C3CC3)c2)N=C1N (stereo not shown) [Example 85, 2-amino-5-[3-cyclopropyl-4-(difluoromethoxy)phenyl]-5-[4-fluoro-3-(3-fluoropropoxy)phenyl]-3-methyl-3,5-dihydro-4H-imidazol-4-one]	< 0.1 µM	
2-Amino-5-[3-chloro-4-(difluoromethoxy)phenyl]-3-methyl-5-phenyl-3,5-dihydro-4H-imidazol-4-one [Example 16]	0.11 to 1 µM	
CN1C(=O)C(c2ccc(OC(F)F)c(Cl)c2)(c2ccc(F)c(OCC(F)F)c2)N=C1N (stereo not shown) [Example 100, 2-Amino-5-[3-chloro-4-(difluoromethoxy)phenyl]-5-[3-(2,2-difluoroethoxy)-4-fluorophenyl]-3-methyl-3,5-dihydro-4H-imidazol-4-one]	< 0.1 µM	
CCCOc1cc(C2(c3ccc(OC(F)F)c(Cl)c3)N=C(N)N(C)C2=O)ccc1F (stereo not shown) [Example 97, 2-Amino-5-[3-chloro-4-(difluoromethoxy)phenyl]-5-(4-fluoro-3-propoxyphenyl)-3-methyl-3,5-dihydro-4H-imidazol-4-one]	< 0.1 µM	
Cc1cc(C2(c3cccc(/C=C/CCF)c3)N=C(N)N(C)C2=O)ccc1OC(F)F (stereo not shown) [Example 63, 2-Amino-5-[4-(difluoromethoxy)-3-methylphenyl]-5-[3-((E)-4-fluorobut-1-enyl)phenyl]-3-methyl-3,5-dihydro-4H-imidazol-4-one]	< 0.1 µM	
CN1C(=O)[C@@](c2ccc(F)c(C#CC3CC3)c2)(c2ccc(OC(F)F)c(CCF)c2)N=C1N (single isomer, unassigned) [Example 94]	0.11 to 1 µM	
COCC/C=C/c1cccc(C2(c3ccc(OC(F)F)c(Cl)c3)N=C(N)N(C)C2=O)c1 (stereo not shown) [Example 67, 2-Amino-5-[3-chloro-4-(difluoromethoxy)phenyl)-5-[3-((E)-4-methoxybut-1-enyl)phenyl]-3-methyl-3,5-dihydro-4H-imidazol-4-one]	< 0.1 µM	
Cc1cc(C2(c3ccc(F)c(Br)c3)N=C(N)N(C)C2=O)ccc1OC(F)F (stereo not shown) [Example 32]		< 0.1 µM
COC/C=C/c1cccc(C2(c3ccc(OC(F)F)c(C)c3)N=C(N)N(C)C2=O)c1 (stereo not shown) [Example 62, 2-Amino-5-[4-(difluoromethoxy)-3-methylphenyl]-5-[3-((E)-3-methoxyprop-1-enyl)phenyl]-3-methyl-3,5-dihydro-4H-imidazol-4-one]	< 0.1 µM	
Cc1cc(C2(c3cccc(OCCCF)c3)N=C(N)N(C)C2=O)ccc1OC(F)F (stereo not shown) [Example 45, 2-Amino-5-[4-(difluoromethoxy)-3-methylphenyl]-5-[3-(3-fluoropropoxy)phenyl]-3-methyl-3,5-dihydro-4H-imidazol-4-one]	< 0.1 µM	
CN1C(=O)C(c2ccc(OC(F)F)c(Cl)c2)(c2ccc(F)c(OCCF)c2)N=C1N (stereo not shown) [Example 99, 2-Amino-5-[3-chloro-4-(difluoromethoxy)phenyl]-5-[4-fluoro-3-(2-fluoroethoxy)phenyl]-3-methyl-3,5-dihydro-4H-imidazol-4-one]	< 0.1 µM	
CN1C(=O)[C@](c2ccccc2)(c2ccc(OC(F)F)c(CCF)c2)N=C1N (single isomer, unassigned) [Example 75]	< 0.1 µM	
Cc1cc(C2(c3ccc(F)c(OCC4CC4)c3)N=C(N)N(C)C2=O)ccc1OC(F)F (stereo not shown) [Example 105, 2-Amino-5-[3-(cyclopropylmethoxy)-4-fluorophenyl]-5-[4-(difluoromethoxy)-3-methylphenyl]-3-methyl-3,5-dihydro-4H-imidazol-4-one]	< 0.1 µM	
C/C=C/c1cc(C2(c3ccc(OC(F)F)c(C)c3)N=C(N)N(C)C2=O)ccc1F (stereo not shown) [Example 59, 2-Amino-5-[4-(difluoromethoxy)-3-methylphenyl]-5-[4-fluoro-3-((E)-prop-1-enyl)phenyl]-3-methyl-3,5-dihydro-4H-imidazol-4-one]	< 0.1 µM	
CCc1cc([C@@]2(c3ccccc3)N=C(N)N(C)C2=O)ccc1OC(F)F [Example 24, (5R)-2-Amino-4-[4-(difluoromethoxy)-3-ethylphenyl]-1-methyl-4-phenyl-1H-imidazol-5(4H)-one]		> 1 µM
CCCOc1cccc(C2(c3ccc(OC(F)F)c(Cl)c3)N=C(N)N(C)C2=O)c1 (stereo not shown) [Example 39, 2-Amino-5-[3-chloro-4-(difluoromethoxy)phenyl]-3-methyl-5-(3-propoxyphenyl)-3,5-dihydro-4H-imidazol-4-one]	< 0.1 µM	
CCc1cc([C@@]2(c3ccc(F)c(OCCCF)c3)N=C(N)N(C)C2=O)ccc1OC(F)F [Example 121, (5S)-2-Amino-5-[4-(difluoromethoxy)-3-ethylphenyl]-5-[4-fluoro-3-(3-fluoropropoxy)phenyl]-3-methyl-3,5-dihydro-4H-imidazol-4-one]	> 1 µM	

Further lines, with some results ahead:

IC50 (read-out: BACE1 IC50)	Compound	IC50 (BACE1 IC50 μM)
0.11 to 1 µM	CN1C(=O)[C@@](c2cccc(C#CCCCO)c2)(c2ccc(OC(F)F)c(C3CC3)c2)N=C1N (single isomer, unassigned) [Example 189]	
0.11 to 1 µM	Cc1cc(C2(c3ccc(F)c(OC(C)C)c3)N=C(N)N(C)C2=O)ccc1OC(F)F (stereo not shown) [Example 195, 2-amino-5-[4-(difluoromethoxy)-3-methylphenyl]-5-(4-fluoro-3-isopropoxyphenyl)-3-methyl-3,5-dihydro-4H-imidazol-4-one]	
< 0.1 µM	Cc1cc(C2(c3cccc(OCCC(F)F)c3)N=C(N)N(C)C2=O)ccc1OC(F)F (stereo not shown) [Example 126, 2-Amino-5-[4-(difluoromethoxy)-3-methylphenyl]-5-[3-(3,3-difluoropropoxy)phenyl]-3-methyl-3,5-dihydro-4H-imidazol-4-one]	
< 0.1 µM	Cc1cc([C@]2(c3ccc(F)c(OCCC(F)F)c3)N=C(N)N(C)C2=O)ccc1OC(F)F [Example 132, (5R)-2-Amino-5-[4-(difluoromethoxy)-3-methylphenyl]-5-[3-(3,3-difluoropropoxy)-4-fluorophenyl]-3-methyl-3,5-dihydro-4H-imidazol-4-one]	
< 0.1 µM	COCCCC#Cc1cccc(C2(c3ccc(OC(F)F)c(C4CC4)c3)N=C(N)N(C)C2=O)c1 (stereo not shown) [Example 186, 2-amino-4-(3-cyclopropyl-4-(difluoromethoxy)phenyl)-4-(3-(5-methoxypent-1-ynyl)phenyl)-1-methyl-1H-imidazol-5(4H)-one]	
< 0.1 µM	Cc1cc([C@]2(c3ccc(F)c(C#CCCF)c3)N=C(N)N(C)C2=O)ccc1OC(F)F [Example 205, (5R)-2-amino-5-[4-(difluoromethoxy)-3-methylphenyl]-5-[4-fluoro-3-(4-fluorobut-1-yn-1-yl)phenyl]-3-methyl-3,5-dihydro-4H-imidazol-4-one]	
< 0.1 µM	CN1C(=O)C(c2cccc(C#CCCCF)c2)(c2ccc(OC(F)F)c(C3CC3)c2)N=C1N (stereo not shown) [Example 191, 2-amino-4-(3-cyclopropyl-4-(difluoromethoxy)phenyl)-4-(3-(5-fluoropent-1-ynyl)phenyl)-1-methyl-1H-imidazol-5(4H)-one]	
0.11 to 1 µM	COCC#Cc1cccc([C@]2(c3ccc(OC(F)F)c(C4CC4)c3)N=C(N)N(C)C2=O)c1 (single isomer, unassigned) [Example 182]	
< 0.1 µM	CCc1cc([C@]2(c3ccc(F)c(C#CCF)c3)N=C(N)N(C)C2=O)ccc1OC(F)F [Example 162, (5R)-2-Amino-5-[4-(difluoromethoxy)-3-ethylphenyl]-5-[4-fluoro-3-(3-fluoroprop-1-yn-1-yl)phenyl]-3-methyl-3,5-dihydro-4H-imidazol-4-one]	
> 1 µM	CN1C(=O)[C@@](c2cccc(C#CCF)c2)(c2ccc(OC(F)F)c(C3CC3)c2)N=C1N [Example 212, (5R)-2-amino-5-[3-cyclopropyl-4-(difluoromethoxy)phenyl]-5-[3-(3-fluoroprop-1-yn-1-yl)phenyl]-3-methyl-3,5-dihydro-4H-imidazol-4-one]	
> 1 µM	CCc1cc([C@@]2(c3ccc(F)c(OCCC(F)F)c3)N=C(N)N(C)C2=O)ccc1OC(F)F [Example 135, (5S)-2-Amino-5-[4-(difluoromethoxy)-3-ethylphenyl]-5-[3-(3,3-difluoropropoxy)-4-fluorophenyl]-3-methyl-3,5-dihydro-4H-imidazol-4-one]	
